From patent US6656911B2, “Serine protease inhibitors” (Cortech, Inc., priority 1994, dated 2003) come the findings set out here.

In data set [1] the target is T1, elastase derived from human sputum (HSE) (Homo sapiens, UniProt P08246).
T1 construct: prepared from commercially available HSE (875 U/mg protein, SE-563, Elastin Product Co., Inc., Missouri, USA); purchased Elastin Product Co., Inc., Missouri, USA SE-563; host or cells: human sputum (natural enzyme)
T1 sequence (P08246 30-247 limits assumed): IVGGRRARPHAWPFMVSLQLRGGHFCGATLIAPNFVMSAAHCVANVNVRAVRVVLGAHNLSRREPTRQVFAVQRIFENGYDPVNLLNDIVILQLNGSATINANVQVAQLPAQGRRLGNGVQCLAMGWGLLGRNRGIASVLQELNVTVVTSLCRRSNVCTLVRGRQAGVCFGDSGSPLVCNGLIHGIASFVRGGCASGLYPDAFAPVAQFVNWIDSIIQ
The experiment in a line: In vitro inhibition of elastase (ONO-PO series). In kind it is biochemical. As to conditions: substrate N-methoxysuccinyl-Ala-Ala-Pro-Val-p-nitroaniline, 37° C., pH 8.0, IC50 converted to Ki by Dixson plot.

Data set [2] has as its system polymorphoneucleocyte (PMN). Kind of data set: Extracellular Matrix (ECM) degradation assay. In kind it is cell-based. As to conditions: PMN's stimulated with opsonized zymosan, 4 hr at 37° C.; for ECM DATA % Inhibition 1 uM / inhibition at 1 µM: 1 uM inhibitor; for ECM DATA % Inhibition 5 uM / inhibition at 5 µM: 5 uM inhibitor. A digest of the protocol: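 Radiolabelled ([35S]sulfate/[3H]proline) ECM from R22 rat smooth muscle cells preincubated 30 min with 1 or 5 uM inhibitor in HBSS (<2% DMSO). PMNs (5×10^5/well) stimulated with serum-opsonized zymosan (10 particles/PMN), 4 h at 37 °C. Degradation = released over total ECM counts, minus PMN-free basal release.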

The target in data set [3] is T2, human neutrophil elastase (HNE) (Homo sapiens, UniProt P08246).
T2 sequence (P08246 30-267): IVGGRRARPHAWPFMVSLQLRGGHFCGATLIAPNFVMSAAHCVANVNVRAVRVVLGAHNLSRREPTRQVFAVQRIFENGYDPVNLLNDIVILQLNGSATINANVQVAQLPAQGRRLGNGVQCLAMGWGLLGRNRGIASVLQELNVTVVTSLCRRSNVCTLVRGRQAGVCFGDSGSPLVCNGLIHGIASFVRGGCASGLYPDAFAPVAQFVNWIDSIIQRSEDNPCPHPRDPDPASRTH
Kind of data set: HNE Ki of CE compounds, tested as described in WO 96/16080. In kind it is biochemical. The following applies: read-out: HNE Ki.

Data set [4] in a line: Blood level screening after oral dose. In kind it is in vivo, Sprague-Dawley rats. The following applies: rat, oral gavage 10 mg/kg; for concentration at 1 h / concentration at 3 h / concentration at 6 h: male, Sprague-Dawley, plasma; for concentration at 1 h: read-out: Plasma Levels (μM) 1 hr; for concentration at 3 h: read-out: Plasma Levels (μM) 3 hr; for concentration at 6 h: read-out: Plasma Levels (μM) 6 hr. A digest of the protocol: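 Unfasted male Sprague-Dawley rats received 10 mg/kg by oral gavage in PEG, PEG-400 or PEG:H2O:EtOH. Plasma was solvent-extracted and the inhibitor measured by HPLC or LC/MS.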

Consider `CC(C)C(NC(=O)Cn1c(-c2ccccc2)nccc1=O)C(=O)c1nnc(C(C)(C)C)o1` (racemic) [ONO-PO-737, 2-[6-Oxo-2-phenyl)-1,6-dihydro-1-pyrimidinyl]-N-[1-(2-[5-tert-butyl-1,3,4-oxadiazolyl]carbonyl)-2-(R,S)-methylpropyl]acetamide], for which the inhibitory constant (Ki) – broadly, a dissociation constant, usually derived from enzyme kinetics or from competition with a known ligand – in data set [1] was 36.3 nM.

With `Cc1cccc(Cc2nnc(C(=O)[C@@H](NC(=O)Cn3c(-c4ccc(F)cc4)ccc(N)c3=O)C(C)C)o2)c1` [CE2251, 2-[5-Amino-6-oxo-2-(4-fluorophenyl)-1,6-dihydro-1-pyridinyl]-N-[1-(2-[5-(3-methylbenzyl)-1,3,4-oxadiazolyl]carbonyl)-2-(S)-methylpropyl]acetamide], in data set [2], the “ECM DATA % Inhibition 1 uM” value is given as 54.1% and the “ECM DATA % Inhibition 5 uM” value is recorded as 74.5%. The Ki in data set [3] worked out at 0.43 nM. For the same compound, in data set [4], the “Plasma Levels (μM) 1 hr” value worked out at 1.63 µM, the “Plasma Levels (μM) 3 hr” value turned out to be 1.11 µM and the “Plasma Levels (μM) 6 hr” value was found to be 0.73 µM.

Consider `Cc1cccc(Cc2nnc(C(=O)[C@@H](NC(=O)CN3C(=O)NC(c4ccccc4)(c4ccccc4)C3=O)C(C)C)o2)c1` [CE2252, 4,4-Diphenyl-2,5-imidazolidinedione-N-[1-(2-[5-(3-methylbenzyl)-1,3,4-oxadiazolyl]carbonyl)-2-(S)-methylpropyl]acetamide], for which, in data set [2], the “ECM DATA % Inhibition 1 uM” value is recorded as 45.4% and the “ECM DATA % Inhibition 5 uM” value is recorded as 65.2%. Further, the Ki in data set [3] turned out to be 1.9 nM. In data set [4], the “Plasma Levels (μM) 1 hr” value is 0.114 µM, the “Plasma Levels (μM) 3 hr” value was 0.188 µM and the “Plasma Levels (μM) 6 hr” value is 0.1 µM.

Take `Cc1cccc(Cc2nnc(C(=O)[C@@H](NC(=O)CN3C(=O)NC4(Cc5ccccc5C4)C3=O)C(C)C)o2)c1` [CE2253, 4-Spiro-(2-indanyl)-2,5-imidazolidinedione-N-[1-(2-[5-(3-methylbenzyl)-1,3,4-oxadiazolyl]carbonyl)-2-(S)-methylpropyl]acetamide]: in data set [2], at 1 µM the inhibition was 31.9% and the inhibition (commonly the percentage by which the read-out fell short of the control) at 5 µM stood at 45.9%. For the same compound, in data set [3], the Ki stood at 11 nM. For the same compound, in data set [4], the concentration at 1 h was determined as 0.282 µM, the concentration at 3 h came to 0.246 µM and the concentration at 6 h was 0.163 µM.

Consider `CC(C)[C@H](NC(=O)CN1C(=O)N[C@H](Cc2ccc(O)cc2)C1=O)C(=O)c1nnc(Cc2ccc3c(c2)OCO3)o1` [CE2256, 4-(R)-(4-Hydroxybenzyl)-2,5-imidazolidinedione-N-[1-(2-[5-(3,4-methylenedioxybenzyl)-1,3,4-oxadiazolyl]carbonyl)-2-(S)-methylpropyl]acetamide], for which, in data set [2], the “ECM DATA % Inhibition 1 uM” value amounted to 24% and the “ECM DATA % Inhibition 5 uM” value is on record as 47.8%. Moreover, the inhibition constant (Ki) in data set [3] worked out at 16 nM. In data set [4], the “Plasma Levels (μM) 1 hr” value was found to be 0.9 µM, the “Plasma Levels (μM) 3 hr” value was found to be 0.33 µM and the “Plasma Levels (μM) 6 hr” value worked out at 0.2 µM.

Regarding `Cc1cccc(Cc2nnc(C(=O)[C@@H](NC(=O)CN3C(=O)CN=C(c4ccccc4N(C)C)c4ccccc43)C(C)C)o2)c1` [CE2258, 2-Oxo-5-phenyl-1,4-(2′-dimethylaminobenzodiazepine)-N-[1-(2-[5-(3-methylbenzyl)-1,3,4-oxadiazolyl]carbonyl)-2-(S)-methylpropyl]acetamide], in data set [2], the “ECM DATA % Inhibition 1 uM” value is 42.9% and the “ECM DATA % Inhibition 5 uM” value came to 38.1%. The Ki in data set [3] turned out to be 3.7 nM. In data set [4], the “Plasma Levels (μM) 1 hr” value was 1.624 µM, the “Plasma Levels (μM) 3 hr” value was determined as 1.5 µM and the “Plasma Levels (μM) 6 hr” value is 1.212 µM.

On to `CC(C)[C@H](NC(=O)CN1C(=O)NC(c2ccccc2)(c2ccccc2)C1=O)C(=O)c1nnc(Cc2ccc3c(c2)OCO3)o1` [CE2259, 4,4-Diphenyl-2,5-imidazolidinedione-N-[1-(2-[5-(3,4-methylenedioxybenzyl)-1,3,4-oxadiazolyl]carbonyl)-2-(S)-methylpropyl]acetamide], for which, in data set [2], the “ECM DATA % Inhibition 1 uM” value is reported as 43% and the “ECM DATA % Inhibition 5 uM” value was determined as 59.6%. Besides, the Ki in data set [3] is 3.3 nM. In addition, in data set [4], the “Plasma Levels (μM) 1 hr” value was determined as 0.597 µM, the “Plasma Levels (μM) 3 hr” value was determined as 0.846 µM and the “Plasma Levels (μM) 6 hr” value stood at 0.502 µM.

In the case of `Cc1cccc(Cc2nnc(C(=O)[C@@H](NC(=O)Cn3c(-c4ccccc4)ncc(N)c3=O)C(C)C)o2)c1` [CE2260, 2-[5-Amino-6-oxo-2-phenyl-1,6-dihydro-1-pyrimidinyl]-N-[1-(2-[5-(3-methylbenzyl)-1,3,4-oxadiazolyl]carbonyl)-2-(S)-methylpropyl]acetamide], in data set [2], the inhibition at 1 µM is 68.3% and the inhibition at 5 µM was 59.7%. The inhibition constant Ki in data set [3] came to 0.39 nM. Moreover, in data set [4], the concentration at 1 h came to 3.53 µM, the concentration at 3 h came out at 3.05 µM and the concentration at 6 h stood at 1.89 µM.

For `CC(C)[C@H](NC(=O)Cn1c(-c2ccc(F)cc2)ncc(NC(=O)OCc2ccccc2)c1=O)C(=O)c1nnc(C(C)(C)c2ccccc2)o1` [ONO-PO-690, 2-[5-(Benzyloxycarbonyl)amino-6-oxo-2-(4-fluorophenyl)-1,6-dihydro-1-pyrimidinyl]-N-[1-(2-[5-(α,α-dimethylbenzyl)-1,3,4-oxadiazolyl]carbonyl)-2-(S)-methylpropyl]acetamide], the inhibition constant (Ki) in data set [1] turned out to be 78.3 nM.

In the case of `CC(C)[C@H](NC(=O)Cn1c(-c2ccc(F)cc2)ncc(N)c1=O)C(=O)c1nnc(-c2ccccc2)o1` [ONO-PO-694, 2-[5-Amino-6-oxo-2-(4-fluorophenyl)-1,6-dihydro-1-pyrimidinyl]-N-[1-(2-[5-phenyl-1,3,4-oxadiazolyl]carbonyl)-2-(S)-methylpropyl]acetamide], the affinity in data set [1] corresponds to a Ki of 24.8 nM.

Take `CC(C)[C@H](NC(=O)Cn1c(-c2ccc(F)cc2)ncc(N)c1=O)C(=O)c1nnc(-c2cccnc2)o1` [ONO-PO-695, 2-[5-Amino-6-oxo-2-(4-fluorophenyl)-1,6-dihydro-1-pyrimidinyl]-N-[1-(2-[5-(3-pyridyl)-1,3,4-oxadiazolyl]carbonyl)-2-(S)-methylpropyl]acetamide]: affinity in data set [1] was put at a Ki of 13.9 nM.

In data set [1], `CC(C)[C@H](NC(=O)Cn1c(-c2ccc(F)cc2)ncc(NC(=O)OCc2ccccc2)c1=O)C(=O)c1nnc(-c2ccccc2)o1` [ONO-PO-697, 2-[5-(Benzyloxycarbonyl)amino-6-oxo-2-(4-fluorophenyl)-1,6-dihydro-1-pyrimidinyl]-N-[1-(2-[5-phenyl-1,3,4-oxadiazolyl]carbonyl)-2-(S)-methylpropyl]acetamide] displayed a Ki of 27.3 nM.

The compound `CC(C)[C@H](NC(=O)Cn1c(-c2ccc(F)cc2)ncc(NC(=O)OCc2ccccc2)c1=O)C(=O)c1nnc(C(C)(C)C)o1` [ONO-PO-698, 2-[5-(Benzyloxycarbonyl)amino-6-oxo-2-(4-fluorophenyl)-1,6-dihydro-1-pyrimidinyl]-N-[1-(2-[5-tert-butyl-1,3,4-oxadiazolyl]carbonyl)-2-(S)-methylpropyl]acetamide] displayed a Ki in data set [1] of 0.77 nM.

In turn, `COc1ccc(-c2nnc(C(=O)[C@@H](NC(=O)Cn3c(-c4ccc(F)cc4)ncc(N)c3=O)C(C)C)o2)cc1` [ONO-PO-699, 2-[5-Amino-6-oxo-2-(4-fluorophenyl)-1,6-dihydro-1-pyrimidinyl]-N-[1-(2-[5-(4-methoxyphenyl)-1,3,4-oxadiazolyl]carbonyl)-2-(S)-methylpropyl]acetamide] had a Ki in data set [1] of 21.2 nM.
